Results: paper PMC3230693 (Nature structural & molecular biology, 2011)
One block for each molecule: values may come before it.

How the values were obtained:
[1] = target: WT tEGFR (human EGFR aa 25–1022) (Homo sapiens, UniProt P00533); test: Radiometric kinase inhibition assay, WT tEGFR; format: biochemical
L858R tEGFR = L858R tEGFR (Homo sapiens, UniProt P00533, L858R)
Δ746–750 tEGFR = Δ746–750 tEGFR (Homo sapiens, UniProt P00533, DEL746-750)
HEK293 GnTi− cells = test: Expression of mutant tEGFRs in transfected cells; format: cell-based, human; conditions: 50 nM in culture medium; western blot
[2] = target: L858R I706Q tEGFR (human)
EGFR catalytic domain = conditions: cited from earlier work
[3] = target: Δ(746–750) I706Q tEGFR (human)

Molecule: Nc1ncnc2c1ncn2[C@@H]1O[C@H](COP(=O)(O)OP(=O)(O)NP(=O)(O)O)[C@@H](O)[C@H]1O [AMP-PNP]
- IC50 ([1]; WT tEGFR–EGF, 10 µM ATP, range stated for WT and mutant tEGFRs): 80 to 200 µM
- Ki ([1]; read-out: Ki (deduced from IC50, ATP concentration and ATP Kmapp), WT tEGFR–EGF): 21 ± 5 µM
- IC50 (L858R tEGFR; L858R tEGFR–EGF, 10 µM ATP, range stated for WT and mutant tEGFRs): 80 to 200 µM
- Ki fold higher compared with WT (L858R tEGFR; L858R vs WT tEGFR, range stated for both mutants): 5–8 fold
- Ki fold higher compared with WT (Δ746–750 tEGFR; Δ746–750 vs WT tEGFR, range stated for both mutants): 5–8 fold
- IC50 (Δ746–750 tEGFR; Δ(746–750) tEGFR–EGF, 10 µM ATP, range stated for WT and mutant tEGFRs): 80 to 200 µM

Molecule: C#Cc1cccc(Nc2ncnc3cc(OCCOC)c(OCCOC)cc23)c1 [erlotinib]
- expression of L858R and Δ746–750 tEGFRs (HEK293 GnTi− cells): enhanced expression

Molecule: Δ(746–750) I706Q tEGFR (receptor)
- kinase rate of the EGF–bound form, against Δ746–750 tEGFR [3]: 5 fold lower

More lines, main results first:

- kinase rate in the presence of EGF, against the single mutant L858R tEGFR [2]: 30 fold lower
Molecule: L858R I706Q tEGFR (receptor)

- IC50 ([1]; EGF–bound WT tEGFR, phosphorylation of biotinylated substrate peptide): 100 µM
- inhibition by MIG6 segment 1 (L858R tEGFR; L858R tEGFR–EGF, up to 100 µM): essentially resistant to inhibition
- inhibition by MIG6 segment 1 (Δ746–750 tEGFR; Δ(746–750) tEGFR–EGF, up to 100 µM): essentially resistant to inhibition
Molecule: Segment 1 of MIG6: MIG6 segment 1 (30mer, residues 334–364) peptide made by solid-phase peptide synthesis (SPKSLPSYLNGVMPPTQSFAPDPKYVSSKAL)
- affinity, fold weaker relative to segment 1+2 (EGFR catalytic domain): ~ 100 fold
